# Experimental data as given in the NIST ThermoML archive (doi:10.1016/j.jct.2015.05.014).
# Numbers after ± are expanded uncertainties.
# Assay: activity coefficient (dimensionless); of the first substance listed, at infinite dilution; xn = mol fraction of the nth substance listed
# Conditions: 100 kPa, Liquid, Chromatography, x1 = 0
Compound,activity coefficient (308.15 K),activity coefficient (318.15 K),activity coefficient (328.15 K),activity coefficient (338.15 K),activity coefficient (348.15 K),activity coefficient (358.15 K),activity coefficient (368.15 K),activity coefficient (378.15 K),activity coefficient (388.15 K),activity coefficient (398.15 K),activity coefficient (408.15 K)
C=CCCCCC [1-heptene] + CC(O)C(=O)[O-].CC[N+]1(C)CCCC1,88.8 ± 7.7,83.8 ± 7.3,78.7 ± 6.8,75.2 ± 6.5,71.9 ± 6.2,68.8 ± 6,66.4 ± 5.7,,,,
C#CCCCC [1-hexyne] + CC(O)C(=O)[O-].CC[N+]1(C)CCCC1,5.14 ± 0.44,5.48 ± 0.47,5.79 ± 0.5,6.21 ± 0.54,6.54 ± 0.56,6.92 ± 0.6,7.24 ± 0.62,,,,
c1ccccc1 [benzene] + CC(O)C(=O)[O-].CC[N+]1(C)CCCC1,,2.85 ± 0.25,2.94 ± 0.25,3.04 ± 0.26,3.14 ± 0.27,3.24 ± 0.28,3.36 ± 0.29,,,,
COC(C)(C)C [2-methoxy-2-methylpropane] + CC(O)C(=O)[O-].CC[N+]1(C)CCCC1,18.1 ± 1.6,18 ± 1.6,17.9 ± 1.5,17.9 ± 1.5,17.8 ± 1.5,17.7 ± 1.5,17.7 ± 1.5,,,,
c1ccncc1 [pyridine] + CC(O)C(=O)[O-].CC[N+]1(C)CCCC1,,1.26 ± 0.11,1.3 ± 0.11,1.36 ± 0.11,1.41 ± 0.12,1.46 ± 0.12,1.53 ± 0.13,,,,
"Cc1ccc(C)cc1 [1,4-dimethylbenzene] + CC(O)C(=O)[O-].CC[N+]1(C)CCCC1",,10 ± 0.9,10.1 ± 0.9,10.3 ± 0.9,10.4 ± 0.9,10.5 ± 0.9,10.7 ± 0.9,,,,
C1CCCC1 [cyclopentane] + CC(O)C(=O)[O-].CC[N+]1(C)CCCC1,31.7 ± 2.7,29.7 ± 2.6,28.2 ± 2.4,26.9 ± 2.3,25.7 ± 2.2,24.7 ± 2.1,23.5 ± 2,,,,
CCCCO [butan-1-ol] + CC(O)C(=O)[O-].CC[N+]1(C)CCCC1,,,,,,0.335 ± 0.036,0.361 ± 0.038,0.388 ± 0.039,0.421 ± 0.041,0.453 ± 0.043,0.486 ± 0.045
CCOC(C)(C)C [2-ethoxy-2-methylpropane] + CC(O)C(=O)[O-].CC[N+]1(C)CCCC1,46.2 ± 4,45.2 ± 3.9,43.9 ± 3.8,42.5 ± 3.7,41.6 ± 3.6,40.7 ± 3.5,39.7 ± 3.4,,,,

# Other lines, results leading:
activity coefficient (308.15 K),activity coefficient (318.15 K),activity coefficient (328.15 K),activity coefficient (338.15 K),activity coefficient (348.15 K),activity coefficient (358.15 K),activity coefficient (368.15 K),activity coefficient (378.15 K),activity coefficient (388.15 K),activity coefficient (398.15 K),activity coefficient (408.15 K),Compound
,4.71 ± 0.41,4.79 ± 0.41,4.88 ± 0.42,4.97 ± 0.43,5.06 ± 0.44,5.22 ± 0.45,5.32 ± 0.46,,,,CCC(=O)OC [methyl propanoate] + CC(O)C(=O)[O-].CC[N+]1(C)CCCC1
55.3 ± 4.8,53.6 ± 4.6,52 ± 4.5,50.1 ± 4.3,48.6 ± 4.2,47.2 ± 4.1,45.9 ± 4,,,,,CC(C)OC(C)C [diisopropyl ether] + CC(O)C(=O)[O-].CC[N+]1(C)CCCC1
,,,,,,0.046,0.052,0.059,0.066 ± 0.03,0.072 ± 0.03,O [water] + CC(O)C(=O)[O-].CC[N+]1(C)CCCC1
,,,,,0.236 ± 0.032,0.256 ± 0.033,0.277 ± 0.034,0.302 ± 0.035,0.327 ± 0.036,0.349 ± 0.037,CCCO [propan-1-ol] + CC(O)C(=O)[O-].CC[N+]1(C)CCCC1
52.1 ± 4.5,50.3 ± 4.4,48.2 ± 4.2,46.2 ± 4,44.8 ± 3.9,43.2 ± 3.7,41.9 ± 3.6,,,,,CCCOCCC [dipropyl ether] + CC(O)C(=O)[O-].CC[N+]1(C)CCCC1
